Data on 3 compounds can be found in ChEMBL document CHEMBL1129619, “New series of potent, orally bioavailable, non-peptidic cyclic sulfones as HIV-1 protease inhibitors” (J Med Chem, 1996).

Data set [1] is described as follows: Cytotoxic Concentration needed to produce 50% reduction in the number of viable MT2 cells assayed by metabolism of a tetrazolium dye. It is filed as cell-based. Conditions: human.
Data set [2] relates to MT2. In words: Concentration needed to inhibit HIV-1 virus replication in MT2 cells by 50% as determined by XTT assay. The following applies: Homo sapiens. It is filed as functional, cell-based. (In general: Tetrazolium assays rely on reduction of a dye to a coloured formazan, in cell work by metabolically active cells.)
Data set [3] concerns MT2. In words: Concentration needed to inhibit HIV-1 virus replication in MT2 cells by 90% as determined by XTT assay. It is filed as functional. The following applies: Homo sapiens.
Data set [4] deals with Human immunodeficiency virus type 1 protease (Human immunodeficiency virus 1, UniProt Q72874). In words: Concentration needed to inhibit HIV- protease activity by 50%.
Data set [5] can be described thus: Selectivity ratio between EC50 ancd CC50 values of the compound. It is filed as functional.
Data set [6] is described as follows: Selective ratio between EC50 ancd CC50 values calculated. It is filed as functional.

SMILES strings stand for the structures.

For the compound `O=S1(=O)[C@H](Cc2ccccc2)[C@H](OCc2cncs2)[C@H](O)[C@@H](O)[C@@H](OCc2cncs2)[C@H]1Cc1ccccc1`, the CC50 in data set [1] was 40000 nM. The compound further had an EC50 in the data set on MT2 [2] of 6.5 nM. In the data set on MT2 [3], this compound came in with an EC90 of 40 nM. The compound further came in with an IC50 in data set [4] of 0.3 nM. The SI in data set [5] stood at 6150.
`Nc1cccc(CO[C@@H]2[C@H](O)[C@@H](O)[C@@H](OCc3cccc(N)c3)[C@@H](Cc3ccccc3)S(=O)(=O)[C@@H]2Cc2ccccc2)c1` registered a CC50 in data set [1] of 30000 nM. Further, in the data set on MT2 [2], a half-maximal effect (EC50) was put at 9 nM. Further, in data set [4], the IC50 turned out to be 1 nM. The SI in data set [6] is 3330.
In data set [1], `O=S1(=O)[C@H](Cc2ccccc2)[C@H](OCc2ccccc2)[C@H](O)[C@@H](O)[C@@H](OCc2ccccc2)[C@H]1Cc1ccccc1` displayed a CC50 of 6000 nM. In the data set on MT2 [2], this compound came in with an EC50 of 40 nM. The 90% effect level with MT2 [3] (EC90) was put at 70 nM. For the same compound, the IC50 in data set [4] worked out at 0.6 nM. Further, the SI in data set [5] was 150.

For orientation: CC50 means the concentration at which the toxic effect on the cells reaches its halfway point. Low values mean harm at low concentration, high ones better tolerance by the cells. For orientation: EC50 means the concentration that produces a half-maximal response. A higher EC50 goes with lower potency in that assay. Usually EC90 stands for the point of the concentration-response curve where the effect stands at 90%. Low readings indicate an effect from little substance, high ones a need for much substance. The term IC50 denotes the concentration needed to halve the response being measured. Low values mean greater potency in that assay, high ones weaker potency in that assay.
